From paper PMC12000511, “Molecular basis for the assembly of the Vps5-Vps17 SNX-BAR proteins with Retromer” (Nature Communications, 2025)
Where two headings read alike, the source gives them in different places. Where no end group is shown, it is not given here.

Key:
[1] = target: ctRetromer (Thermochaetoides thermophila, UniProt G0RZB5+G0S709); test: ITC, binding to ctRetromer; parameters: species or system Chaetomium thermophilum
Method: (§1) All the bacterial constructs were expressed in BL21(DE3) competent cells using standard isopropyl 1-thio-β-D-galactopyranoside induction or autoinduction method as described previously[39],[72],[73]. To obtain the Retromer trimer complex, the GST-tagged Vps29 and Vps35 co-expressed cell pellet were mixed with His-Vps26 and resuspended in lysis buffer containing 50 mM Tris-HCl pH 7.5, 200 mM NaCl, 5% glycerol, 50 μg/ml benzamidine and DNase I before passed through a Constant System TS-Series cell disruptor. […] For all constructs, the lysate was clarified by centrifugation and the supernatant was loaded onto either Talon® resin (Clonetech) or glutathione sepharose (GE healthcare) for initial purification. To obtain the correct stoichiometry ratio of the Retromer complex, both Talon® resin and glutathione sepharose (GE healthcare) were applied. […] The flow-through containing complex was further purified using size-exclusion chromatography (SEC) equilibrated with a buffer containing 50 mM Tris-HCl pH 7.5, 200 mM NaCl, 2 mM β-ME. […] To avoid the non-specific cleavage by the residual proteases such as thrombin, a tablet of protease inhibitor cocktail was added into the complex mixture. To remove the unbound fractions, the complex mixture was further purified using Superose 6 increase 10/300 GL column using the SEC buffer described above.
In brief, the clarified lysate was loaded onto glutathione sepharose (GE healthcare) and eluted using elution buffer containing 50 mM Tris-HCl pH 7.5, 200 mM NaCl, 5% glycerol, 20 mM glutathione reduced and 50 μg/ml benzamidine. The flow-through was further purified using SEC as the final purification step. To avoid the degradation, the constructs containing N-terminal disordered parts of Vps5 and Vps17 were used in fresh and experiments were finished within 3 days after purification.
(§2) All the proteins used for ITC experiments were prepared in buffer containing 50 mM Tris-HCl pH 7.5, 200 mM NaCl, 2 mM β-ME. […] In all cases, the ITC titration sequence consisted of an initial 0.4 μl (not used in data processing) followed by 12 serial injections of 3.22 μl each with 180 s intervals. The resulting titration data were integrated with Malvern software package by fitting and normalized data to a single-site binding model, yielding the thermodynamic parameters Kd, ∆H, ∆G and −T∆S for all binding experiments. The stoichiometry was refined initially, and if the value was close to 1, then N was set to exactly 1.0 for calculation. Data presented are the mean of triplicate titrations for each experiment.

[2] = target: T1, mVps29 (Mus musculus, UniProt Q9QZ88); test: ITC, binding to mVps29; details: ITC, mVps29
T1 construct: GST (thrombin site) (N, cleaved yes); made in house; host or cells: E. coli BL21(DE3)
Method: as §1, §2

[3] = target: ctRetromer (Chaetomium thermophilum Retromer trimer of ctVps35, ctVps26 and ctVps29) (Chaetomium thermophilum); test: ITC; Microcal PEAQ ITC, 25 °C, 50 mM Tris-HCl pH 7.5, 200 mM NaCl, 2 mM β-ME; Vps5/Vps17/SNX1 construct or peptide (200-400 µM) titrated into 10-15 µM Retromer or Vps29; single-site model, N set to 1.0 if close to 1
[4] = target: mouse VPS29 (mVPS29), long isoform (mouse); test: as above
[5] = system: scRetromer and scSNX-BAR on supported membrane tubes; test: Supported membrane tube (SMT) assay; format: biochemical, Saccharomyces cerevisiae; details: scSNX-BAR and scRetromer on SMTs containing 5% PtdIns(3)P
Method: Supported membrane tubes were generated as described[46]. Briefly, glass coverslips were first washed with 3 M NaOH for 5 min and rinsed with water before a 60 min treatment with piranha solution (95% H2SO4/30% H2O2 3:2 v/v). Coverslips were rinsed with water and dried on a heat block at 90 °C. Coverslips were then silanized with 3-glycidyloxypropyltrimethoxysilane (Catalogue no. 440167, Sigma) for 5 h under vacuum, rinsed with acetone and dried. Polyethylene glycol coating was done by placing the coverslips in a beaker containing PEG400 (Sigma) at 90 °C for 60 h. Coverslips were washed with distilled water and stored for up to 2 months at room temperature in a closed container.
To generate supported membrane tubes, lipids were mixed from 10 mg/mL stocks in a glass vial and diluted to a final concentration of 1 mg/mL in chloroform. The same lipid mix was used throughout this study (5% PI(3)P, 15% DOPS, 0.1% fluorescent lipid tracer (Cy5.5 PE or Texas red DHPE), 79.5% egg-PC). Lipids were then spotted (typically 1 µL, corresponding to about 1 nmol) on the coverslips and dried for 30 min under vacuum. The coverslip was mounted on an IBIDI 6-channel µ-slide (µ-Slide VI 0.4. IBIDI, catalog no: 80606). Lipids were hydrated for 15 min with buffer (PBS) and SMTs were generated by injecting PBS into the chamber using an Aladdin Single-Syringe Pump (World Precision Instruments, model n°. AL-1000) at a flow rate of 1,5 mL/min for 5 min. SMTs were left to stabilize without flow for 5 min before the start of the experiment. Protein stocks (typically 1–2 µM) were first diluted in PBS and then injected in the chamber at a flow rate of 80 µL per minute. Cyclic peptides were added to the proteins from a 30 mM stock in DMSO to a final concentration of 300 µM. the protein/peptide mix was incubated for 1 min at room temp (23 °C) before being added to the SMTubes.

[6] = target: T2, hRetromer (Homo sapiens, UniProt Q96QK1+Q9UBQ0); test: ITC, binding to hRetromer; details: for binding to hRetromer: ITC, same conditions as ctRetromer
T2 construct: GST (N); made in house; host or cells: E. coli BL21(DE3) (general statement for bacterial constructs)
Method: as §1, §2

[7] = ctRetromer alone, ITC 25 °C, pH 7.5, 200 mM NaCl, mean of triplicate titrations
[8] = ITC, ctRetromer, Average of 3 batches

Chain of ctRetromer (G0RZB5 entry or part of it): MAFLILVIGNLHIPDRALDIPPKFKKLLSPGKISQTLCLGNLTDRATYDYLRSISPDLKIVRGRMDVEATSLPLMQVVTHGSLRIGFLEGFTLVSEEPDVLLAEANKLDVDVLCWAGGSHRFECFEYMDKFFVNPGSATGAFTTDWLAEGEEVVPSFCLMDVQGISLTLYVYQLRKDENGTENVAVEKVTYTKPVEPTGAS
Chain of ctRetromer (G0S709 entry or part of it): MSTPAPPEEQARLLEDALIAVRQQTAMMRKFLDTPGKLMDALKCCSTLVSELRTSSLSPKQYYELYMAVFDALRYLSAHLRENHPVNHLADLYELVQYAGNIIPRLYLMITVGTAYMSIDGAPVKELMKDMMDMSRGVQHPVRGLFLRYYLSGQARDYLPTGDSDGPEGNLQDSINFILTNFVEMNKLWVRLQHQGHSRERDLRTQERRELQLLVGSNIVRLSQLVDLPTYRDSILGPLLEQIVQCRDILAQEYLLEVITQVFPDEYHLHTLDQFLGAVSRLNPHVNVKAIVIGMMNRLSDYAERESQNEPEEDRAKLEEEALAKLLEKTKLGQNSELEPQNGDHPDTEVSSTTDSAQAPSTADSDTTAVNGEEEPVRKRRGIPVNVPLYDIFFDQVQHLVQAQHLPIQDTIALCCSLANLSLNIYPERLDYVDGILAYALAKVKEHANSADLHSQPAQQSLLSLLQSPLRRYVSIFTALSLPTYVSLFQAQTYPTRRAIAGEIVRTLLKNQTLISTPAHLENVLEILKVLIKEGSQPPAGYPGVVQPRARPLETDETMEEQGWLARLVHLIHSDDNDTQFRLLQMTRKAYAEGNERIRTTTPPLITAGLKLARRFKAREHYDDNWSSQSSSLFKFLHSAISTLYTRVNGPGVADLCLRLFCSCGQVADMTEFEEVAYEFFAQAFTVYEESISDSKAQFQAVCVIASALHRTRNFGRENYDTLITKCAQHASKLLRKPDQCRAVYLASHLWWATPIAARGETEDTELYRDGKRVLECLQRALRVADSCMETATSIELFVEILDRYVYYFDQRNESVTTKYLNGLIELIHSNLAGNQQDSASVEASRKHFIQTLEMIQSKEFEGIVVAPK
Chain of ctRetromer (G0S0E6 entry or part of it, further chain): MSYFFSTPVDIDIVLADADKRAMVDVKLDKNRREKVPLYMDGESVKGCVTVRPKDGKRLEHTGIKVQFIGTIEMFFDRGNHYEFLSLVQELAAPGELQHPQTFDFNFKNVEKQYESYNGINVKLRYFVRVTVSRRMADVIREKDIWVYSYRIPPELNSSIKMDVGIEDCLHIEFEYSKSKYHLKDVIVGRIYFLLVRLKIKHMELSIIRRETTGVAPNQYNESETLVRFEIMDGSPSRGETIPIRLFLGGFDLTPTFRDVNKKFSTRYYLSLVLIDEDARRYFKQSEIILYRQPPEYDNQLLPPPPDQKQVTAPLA

EDDPLGPLGA [ctVPS5 71 to 80]
Kd ([1]; ITC, ctRetromer, Batch 1): No binding
Kd ([1]; ITC, ctRetromer, Batch 2): No binding
Kd ([1]; ITC, ctRetromer, Batch 3): No binding
Delta G ([2]; Average of 3 batches): -5.8 kcal/mol
Delta H ([2]; Average of 3 batches): -8.0 kcal/mol
Delta G ([2]; Batch 1): -5.92 kcal/mol
Delta H ([2]; Batch 1): -6.98 kcal/mol
Delta G ([2]; Batch 2): -5.8 kcal/mol
Delta H ([2]; Batch 2): -9.07 kcal/mol
Delta G ([2]; Batch 3): -5.82 kcal/mol
Delta H ([2]; Batch 3): -7.81 kcal/mol

GST-ctVps5_61–80: GST-tagged ctVps5 residues 61–80 (VAKPKSLEAVEDDPLGPLGA; not fully specified (N-terminus); also: GST fusion, end not given here)
binding to ctRetromer ([1]; ITC 25 °C, pH 7.5, 200 mM NaCl): bind very weakly
ΔG [1, 7]: -5.76 ± 0.12 kcal/mol
ΔH [1, 7]: -7.22 ± 1.94 kcal/mol
−TΔS [1, 7]: 1.45 ± 2.07 kcal/mol
Kd ([1]; ctRetromer alone, Microcal PEAQ ITC, 25 °C, 50 mM Tris-HCl pH 7.5, 200 mM NaCl, 2 mM β-ME, single-site model, mean of triplicate titrations, read-out: Kd): 60.1 ± 12.2 µM

GST-ctVps5_(1–50) (domain or fragment)
Kd [3]: 40.1 µM
dH [3]: -2.7 kcal/mol

GST-ctVps5_(1–185) (domain or fragment)
Kd [3]: 0.72 µM
dH [3]: -3.1 kcal/mol
Kd [4]: 4.82 µM
dH [4]: -0.91 kcal/mol

GST-ctVps5_(51–100) PL74AA (domain or fragment)
Kd [3]: 5.04 µM
dH [3]: -1.76 kcal/mol

SRATPRRIVAKPKSLEAVEDDPLGPLGA [ctVPS5 53 to 80]
Delta G [1, 8]: -8.38 kcal/mol
Delta H [1, 8]: -2.83 kcal/mol
minus T delta S [1, 8]: -5.57 kcal/mol
Delta G ([1]; ITC, ctRetromer, Batch 1): -8.4 kcal/mol
Delta H ([1]; ITC, ctRetromer, Batch 1): -3.44 kcal/mol
minus T delta S ([1]; ITC, ctRetromer, Batch 1): -4.89 kcal/mol
Delta G ([1]; ITC, ctRetromer, Batch 2): -8.35 kcal/mol
Delta H ([1]; ITC, ctRetromer, Batch 2): -2.43 kcal/mol
minus T delta S ([1]; ITC, ctRetromer, Batch 2): -5.98 kcal/mol
Delta G ([1]; ITC, ctRetromer, Batch 3): -8.38 kcal/mol
Delta H ([1]; ITC, ctRetromer, Batch 3): -2.62 kcal/mol
minus T delta S ([1]; ITC, ctRetromer, Batch 3): -5.85 kcal/mol

SRATPRRIVAKPKSLEAVEDDPLGPLGA [ctVps5_53–80 peptide]
Kd ([1]; read-out: Kd): 0.74 ± 0.05 µM

ctVps5_(71–80) peptide
Kd [4]: 54.1 µM
dH [4]: -8 kcal/mol

scRetromer-mRuby: purified recombinant scRetromer carrying mRuby
coat formation / recruitment on SMTs [5]: co-recruited to the tubes within a minute after their addition

B1: scSNX-BAR-GFP: scVps5–scVps17 heterodimer tagged with GFP (protein)
chain 1: MDYEDNLEAPVWDELNHEGDKTQSLVSNSIESIGQISTNEERKDNELLETTASFADKIDLDSAPEWKDPGLSVAGNPQLEEHDNSKADDLINSLAPEQDPIADLKNSTTQFIATRESGGALFTGNANSPLVFDDTIYDANTSPNTSKSISGRRSGKPRILFDSARAQRNSKRNHSLKAKRTTASDDTIKTPFTDPLKKAEKENEFVEEPLDDRNERRENNEGKFTASVEKNILEQVDRPLYNLPQTGANISSPAEVEENSEKFGKTKIGSKVPPTEKAVAFKVEVKDPVKVGELTSIHVEYTVISESSLLELKYAQVSRRYRDFRWLYRQLQNNHWGKVIPPPPEKQSVGSFKENFIENRRFQMESMLKKICQDPVLQKDKDFLLFLTSDDFSSESKKRAFLTGSGAINDSNDLSEVRISEIQLLGAEDAAEVLKNGGIDAESHKGFMSISFSSLPKYNEADEFFIEKKQKIDELEDNLKKLSKSLEMVDTSRNTLAASTEEFSSMVETLASLNVSEPNSELLNNFADVHKSIKSSLERSSLQETLTMGVMLDDYIRSLASVKAIFNQRSKLGYFLVVIENDMNKKHSQLGKLGQNIHSEKFREMRKEFQTLERRYNLTKKQWQAVGDKIKDEFQGFSTDKIREFRNGMEISLEAAIESQKECIELWETFYQTNL
chain 2: MTSAVPYDPYDDLDNNPFAEPQEEDSEPAATTTDGSSSMSEERVGTEQTAASVQDNGTANNIQNGLGEEGNATRSKTSNEHNENQQPSQPSERVILPERSDEKKKYTLLAKVTGLERFGSATGKKENPTIIFDCSTNLPTFRKQQYKNVKKSYEEFHQLFKYLNVAIQESFVPTLPSAYTTFGINSEEDRMKVTRNFQLWFNRLSQDPLIIRNEEVAFFIESDFNTYTPINKSKSLASGLKRKTLKQLAPPYDEITELAEFRPLVKSIYVVSQSLQEKLLRVSRNRKMMVQEENAFGQDFVNLDEHNKLYRRYGKILTAVGDIDSIIATMDMATLYDGLEWIVRDAYAVKEALTNRHFIMRNLVQAQQNSKAKQEQARRFRSRRDINPMKIDEALRQLKAAAKNEQVLTLKLQRITSNMIIERKQWISWYEEWIRSSIKEFTLRKIEYERKKLTLLERVRSDIRKADENGGLSRLGRHAVSNNNSDTSQTLKGDSWTGESNRKSQIPINKIAHTEFDDELFTEDDGYNSQDSDTTSLNARHAASLLGMSTK
coat formation / recruitment on SMTs [5]: co-recruited to the tubes within a minute after their addition

B2: GST-mSNX1_1–139: SNX1 N-terminal residues 1–139 (protein)
chain: MASGGGGCSASERLPPPFPGLEPESEGAAGGSEPEAGDSDTEGEDIFTGAAVVSKHQSPKITTSLLPINNGSKENGIHEEQDQEPQDLFADATVELSLDSTQNNQKKVLAKTLISLPPQEATNSSKPQPTYEELEEEEQ
modifications: left off: GST, end not stated, kept
Kd ([6]; ITC 25 °C, 50 mM Tris-HCl pH 7.5, 200 mM NaCl, 2 mM β-ME, mean of triplicate titrations): No binding detected
binding to hRetromer ([6]; listed as GST-hSNX1_1–139): no detectable interaction
binding to hRetromer ([6]; listed as human SNX1): no detectable association

VAKPKSLEAVEDDPLGPLGA (domain or fragment, also: GST fusion) [GST-ctVps5_(61–80)]
Kd [3]: 60.1 µM
dH [3]: -7.22 kcal/mol

SRATPRRIVAKPKSLEAVEDDPLGPLGA [ctVps5_(53–80) peptide]
Kd [3]: 0.74 µM
dH [3]: -2.83 kcal/mol
